Assay results published in patent publication US12478624B2, “Heterocyclic derivatives, pharmaceutical compositions and their use in the treatment or amelioration of cancer” (Tolremo Therapeutics AG, priority 2019, dated 2025).
pEC50, pKd: −log10 of the molar value.

What was measured:
OPM-2 = assay: Assay 2: multiple myeloma cellular efficacy, PrestoBlue cell proliferation/survival; format: cell-based; settings: Homo sapiens, 96 h, OPM-2 cells, 4 days
How it was run: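 Cells seeded at 10000/well and exposed to a compound dose range or vehicle for 4 days, then stained with PrestoBlue for 2 h at 37 °C. Fluorescence was background-subtracted and normalized to vehicle; EC50 came from a four-parameter variable-slope fit against log concentration.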

ATAD2A = biological target: T1, ATAD2A (Homo sapiens, UniProt Q6PL18); assay: BromoKdMAX (BROMOscan, DiscoverX); format: binding
T1 construct: T7 phage strains displaying bromodomains were grown in parallel; purchased DiscoverX; host or cells: T7 phage in an E. coli host derived from the BL21 strain
T1 sequence (Q6PL18 980-1092 limits assumed): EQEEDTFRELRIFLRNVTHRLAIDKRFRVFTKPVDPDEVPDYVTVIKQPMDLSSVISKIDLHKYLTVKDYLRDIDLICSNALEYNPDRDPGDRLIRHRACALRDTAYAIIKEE
Procedure: (§1) A BromoKdMAX was performed at DiscoverX.
(§2) BROMOscan™ is a novel industry leading platform for identifying small molecule bromodomain inhibitors. Based on proven KINOMEscan™ technology, BROMOscan™ employs a proprietary ligand binding site-directed competition assay to quantitatively measure interactions between test compounds and bromodomains. This robust and reliable assay panel is suitable for high throughput screening and delivers quantitative ligand binding data to facilitate the identification and optimization of potent and selective small molecule bromodomain inhibitors.
(§3) For the Bromodomain assays, T7 phage strains displaying bromodomains were grown in parallel in 24-well blocks in an E. coli host derived from the BL21 strain. E. coli were grown to log-phase and infected with T7 phage from a frozen stock (multiplicity of infection=0.4) and incubated with shaking at 32° C. until lysis (90-150 minutes). The lysates were centrifuged (5,000×g) and filtered (0.2 μm) to remove cell debris. […] The liganded beads were blocked with excess biotin and washed with blocking buffer (SeaBlock (Pierce), 1% BSA, 0.05% Tween 20, 1 mM DTT) to remove unbound ligand and to reduce non-specific phage binding. […] Test compounds were prepared as 1000× stocks in 100% DMSO. Kds were determined using an 11-point 3-fold compound dilution series with one DMSO control point. […] The compounds were then diluted directly into the assays such that the final concentration of DMSO was 0.09%. All reactions performed in polypropylene 384-well plates. Each was a final volume of 0.02 ml. […] The bromodomain concentration in the eluates was measured by qPCR.

ATAD2B = biological target: T2, ATAD2B (Homo sapiens, UniProt Q9ULI0); assay: BromoKdMAX (BROMOscan, DiscoverX); format: binding
T2 construct: T7 phage strains displaying bromodomains were grown in parallel; purchased DiscoverX; host or cells: T7 phage in an E. coli host derived from the BL21 strain
T2 sequence (Q9ULI0 951-1066 limits assumed): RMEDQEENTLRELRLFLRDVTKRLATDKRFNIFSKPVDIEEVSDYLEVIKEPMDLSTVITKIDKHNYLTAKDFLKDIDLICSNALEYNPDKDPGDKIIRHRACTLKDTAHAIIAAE
Procedure: as §1, §2, §3

BAZ2A = biological target: T3, BAZ2A (Homo sapiens, UniProt Q9UIF9); assay: BromoKdMAX (BROMOscan, DiscoverX); format: binding
T3 construct: T7 phage strains displaying bromodomains were grown in parallel; purchased DiscoverX; host or cells: T7 phage in an E. coli host derived from the BL21 strain
T3 sequence (Q9UIF9 1793-1897 limits assumed): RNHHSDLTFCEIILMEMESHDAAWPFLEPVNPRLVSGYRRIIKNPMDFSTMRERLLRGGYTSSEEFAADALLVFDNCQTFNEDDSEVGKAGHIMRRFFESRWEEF
Procedure: as §1, §2, §3

BAZ2B = biological target: T4, BAZ2B (Homo sapiens, UniProt Q9UIF8); assay: BromoKdMAX (BROMOscan, DiscoverX); format: binding
T4 construct: T7 phage strains displaying bromodomains were grown in parallel; purchased DiscoverX; host or cells: T7 phage in an E. coli host derived from the BL21 strain
T4 sequence (Q9UIF8 2060-2164 limits assumed): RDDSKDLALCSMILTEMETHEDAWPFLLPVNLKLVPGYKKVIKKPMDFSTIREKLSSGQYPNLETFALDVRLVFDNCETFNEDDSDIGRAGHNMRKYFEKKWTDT
Procedure: as §1, §2, §3

BRD1 = biological target: T5, BRD1 (Homo sapiens, UniProt O95696); assay: BromoKdMAX (BROMOscan, DiscoverX); format: binding
T5 construct: T7 phage strains displaying bromodomains were grown in parallel; purchased DiscoverX; host or cells: T7 phage in an E. coli host derived from the BL21 strain
T5 sequence (O95696 562-666 limits assumed): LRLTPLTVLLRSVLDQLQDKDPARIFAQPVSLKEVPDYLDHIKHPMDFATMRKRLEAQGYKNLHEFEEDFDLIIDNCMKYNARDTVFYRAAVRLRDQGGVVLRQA
Procedure: as §1, §2, §3

BRD3(1) = biological target: T6, BRD3(1) (Homo sapiens, UniProt Q15059); assay: BromoKdMAX (BROMOscan, DiscoverX); format: binding
T6 construct: T7 phage strains displaying bromodomains were grown in parallel; purchased DiscoverX; host or cells: T7 phage in an E. coli host derived from the BL21 strain
T6 sequence (Q15059 34-140 limits assumed): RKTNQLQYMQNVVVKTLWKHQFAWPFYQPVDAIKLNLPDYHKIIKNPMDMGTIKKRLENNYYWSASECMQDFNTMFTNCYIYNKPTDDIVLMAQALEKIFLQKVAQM
Procedure: as §1, §2, §3

BRD3(1, 2) = biological target: T7, BRD3(1, 2) (Homo sapiens, UniProt Q15059); assay: BromoKdMAX (BROMOscan, DiscoverX); format: binding
T7 construct: T7 phage strains displaying bromodomains were grown in parallel; purchased DiscoverX; host or cells: T7 phage in an E. coli host derived from the BL21 strain
T7 sequence (Q15059 24-416 limits assumed): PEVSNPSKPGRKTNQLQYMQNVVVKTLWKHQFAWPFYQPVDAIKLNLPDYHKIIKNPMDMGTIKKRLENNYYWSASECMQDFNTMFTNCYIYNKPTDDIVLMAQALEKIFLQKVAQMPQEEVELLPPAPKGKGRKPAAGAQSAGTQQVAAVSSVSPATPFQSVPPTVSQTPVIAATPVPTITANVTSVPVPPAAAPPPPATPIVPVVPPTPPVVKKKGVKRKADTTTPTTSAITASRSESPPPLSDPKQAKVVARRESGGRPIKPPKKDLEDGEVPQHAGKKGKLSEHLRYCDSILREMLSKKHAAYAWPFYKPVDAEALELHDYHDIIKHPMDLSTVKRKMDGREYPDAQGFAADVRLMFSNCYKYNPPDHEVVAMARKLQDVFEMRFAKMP
Procedure: as §1, §2, §3

BRD3(2) = biological target: T8, BRD3(2) (Homo sapiens, UniProt Q15059); assay: BromoKdMAX (BROMOscan, DiscoverX); format: binding
T8 construct: T7 phage strains displaying bromodomains were grown in parallel; purchased DiscoverX; host or cells: T7 phage in an E. coli host derived from the BL21 strain
T8 sequence (Q15059 306-415 limits assumed): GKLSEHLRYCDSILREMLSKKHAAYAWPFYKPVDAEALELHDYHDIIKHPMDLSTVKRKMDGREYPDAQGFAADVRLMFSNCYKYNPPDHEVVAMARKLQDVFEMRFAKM
Procedure: as §1, §2, §3

BRD7 = biological target: T9, BRD7 (Homo sapiens, UniProt Q9NPI1); assay: BromoKdMAX (BROMOscan, DiscoverX); format: binding
T9 construct: T7 phage strains displaying bromodomains were grown in parallel; purchased DiscoverX; host or cells: T7 phage in an E. coli host derived from the BL21 strain
T9 sequence (Q9NPI1 131-235 limits assumed): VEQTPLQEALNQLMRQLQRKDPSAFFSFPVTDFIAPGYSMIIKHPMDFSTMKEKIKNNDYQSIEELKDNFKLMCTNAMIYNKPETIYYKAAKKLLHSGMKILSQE
Procedure: as §1, §2, §3

BRD8(1) = biological target: T10, BRD8(1) (Homo sapiens, UniProt Q9H0E9); assay: BromoKdMAX (BROMOscan, DiscoverX); format: binding
T10 construct: T7 phage strains displaying bromodomains were grown in parallel; purchased DiscoverX; host or cells: T7 phage in an E. coli host derived from the BL21 strain
T10 sequence (Q9H0E9 706-811 limits assumed): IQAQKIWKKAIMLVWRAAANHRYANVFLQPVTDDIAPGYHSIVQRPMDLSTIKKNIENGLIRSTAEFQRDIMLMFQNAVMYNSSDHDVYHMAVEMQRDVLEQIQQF
Procedure: as §1, §2, §3

BRD8(2) = biological target: T11, BRD8(2) (Homo sapiens, UniProt Q9H0E9); assay: BromoKdMAX (BROMOscan, DiscoverX); format: binding
T11 construct: T7 phage strains displaying bromodomains were grown in parallel; purchased DiscoverX; host or cells: T7 phage in an E. coli host derived from the BL21 strain
T11 sequence (Q9H0E9 1099-1207 limits assumed): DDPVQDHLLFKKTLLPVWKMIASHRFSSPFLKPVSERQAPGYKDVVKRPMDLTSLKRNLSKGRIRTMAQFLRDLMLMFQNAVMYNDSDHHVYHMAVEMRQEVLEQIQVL
Procedure: as §1, §2, §3

BRD9 = biological target: T12, BRD9 (Homo sapiens, UniProt Q9H8M2); assay: BromoKdMAX (BROMOscan, DiscoverX); format: binding
T12 construct: T7 phage strains displaying bromodomains were grown in parallel; purchased DiscoverX; host or cells: T7 phage in an E. coli host derived from the BL21 strain
T12 sequence (Q9H8M2 136-240 limits assumed): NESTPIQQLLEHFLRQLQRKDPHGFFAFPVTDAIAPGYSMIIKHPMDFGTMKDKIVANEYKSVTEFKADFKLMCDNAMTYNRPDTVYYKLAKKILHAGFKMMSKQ
Procedure: as §1, §2, §3

BRDT(1) = biological target: T13, BRDT(1) (Homo sapiens, UniProt Q58F21); assay: BromoKdMAX (BROMOscan, DiscoverX); format: binding
T13 construct: T7 phage strains displaying bromodomains were grown in parallel; purchased DiscoverX; host or cells: T7 phage in an E. coli host derived from the BL21 strain
Procedure: as §1, §2, §3

BRDT(1, 2) = biological target: T14, BRDT(1, 2) (Homo sapiens, UniProt Q58F21); assay: BromoKdMAX (BROMOscan, DiscoverX); format: binding
T14 construct: T7 phage strains displaying bromodomains were grown in parallel; purchased DiscoverX; host or cells: T7 phage in an E. coli host derived from the BL21 strain
Procedure: as §1, §2, §3

BRDT(2) = biological target: T15, BRDT(2) (Homo sapiens, UniProt Q58F21); assay: BromoKdMAX (BROMOscan, DiscoverX); format: binding
T15 construct: T7 phage strains displaying bromodomains were grown in parallel; purchased DiscoverX; host or cells: T7 phage in an E. coli host derived from the BL21 strain
Procedure: as §1, §2, §3

BRPF1 = biological target: T16, BRPF1 (Homo sapiens, UniProt P55201); assay: BromoKdMAX (BROMOscan, DiscoverX); format: binding
T16 construct: T7 phage strains displaying bromodomains were grown in parallel; purchased DiscoverX; host or cells: T7 phage in an E. coli host derived from the BL21 strain
T16 sequence (P55201 628-732 limits assumed): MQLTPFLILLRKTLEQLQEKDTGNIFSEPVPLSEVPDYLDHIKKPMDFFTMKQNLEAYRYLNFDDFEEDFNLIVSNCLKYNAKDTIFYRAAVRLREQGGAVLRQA
Procedure: as §1, §2, §3

BRPF3 = biological target: T17, BRPF3 (Homo sapiens, UniProt Q9ULD4); assay: BromoKdMAX (BROMOscan, DiscoverX); format: binding
T17 construct: T7 phage strains displaying bromodomains were grown in parallel; purchased DiscoverX; host or cells: T7 phage in an E. coli host derived from the BL21 strain
T17 sequence (Q9ULD4 589-693 limits assumed): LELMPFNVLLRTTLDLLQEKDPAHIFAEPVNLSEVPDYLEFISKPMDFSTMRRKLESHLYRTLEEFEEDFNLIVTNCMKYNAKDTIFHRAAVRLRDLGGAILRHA
Procedure: as §1, §2, §3

CECR2 = biological target: T18, CECR2 (Homo sapiens, UniProt Q9BXF3); assay: BromoKdMAX (BROMOscan, DiscoverX); format: binding
T18 construct: T7 phage strains displaying bromodomains were grown in parallel; purchased DiscoverX; host or cells: T7 phage grown in E. coli host derived from BL21
T18 sequence (Q9BXF3 434-538 limits assumed): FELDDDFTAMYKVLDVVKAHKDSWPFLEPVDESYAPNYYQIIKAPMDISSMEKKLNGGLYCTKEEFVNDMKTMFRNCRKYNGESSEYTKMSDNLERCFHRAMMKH
Procedure: as §1, §2, §3

FALZ = biological target: T19, FALZ (Homo sapiens, UniProt Q12830); assay: BromoKdMAX (BROMOscan, DiscoverX); format: binding; settings: FALZ (BPTF)
T19 construct: T7 phage strains displaying bromodomains were grown in parallel; purchased DiscoverX; host or cells: T7 phage grown in E. coli host derived from BL21
Procedure: as §1, §2, §3

GCN5L2 = biological target: T20, GCN5L2 (Homo sapiens, UniProt Q92830); assay: BromoKdMAX (BROMOscan, DiscoverX); format: binding; settings: GCN5L2 (KAT2A)
T20 construct: T7 phage strains displaying bromodomains were grown in parallel; purchased DiscoverX; host or cells: T7 phage grown in E. coli host derived from BL21
T20 sequence (Q92830 728-832 limits assumed): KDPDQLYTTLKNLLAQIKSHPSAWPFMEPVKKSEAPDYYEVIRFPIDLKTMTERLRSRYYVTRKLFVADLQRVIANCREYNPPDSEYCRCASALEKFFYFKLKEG
Procedure: as §1, §2, §3

PBRM1(2) = biological target: T21, PBRM1(2) (Homo sapiens, UniProt Q86U86); assay: BromoKdMAX (BROMOscan, DiscoverX); format: binding
T21 construct: T7 phage strains displaying bromodomains were grown in parallel; purchased DiscoverX; host or cells: T7 phage grown in E. coli host derived from BL21
T21 sequence (Q86U86 177-287 limits assumed): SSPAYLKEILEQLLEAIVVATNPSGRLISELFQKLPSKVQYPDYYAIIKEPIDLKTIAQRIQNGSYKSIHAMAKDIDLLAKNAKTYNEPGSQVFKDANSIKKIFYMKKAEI
Procedure: as §1, §2, §3

PBRM1(5) = biological target: T22, PBRM1(5) (Homo sapiens, UniProt Q86U86); assay: BromoKdMAX (BROMOscan, DiscoverX); format: binding
T22 construct: T7 phage strains displaying bromodomains were grown in parallel; purchased DiscoverX; host or cells: T7 phage grown in E. coli host derived from BL21
T22 sequence (Q86U86 653-763 limits assumed): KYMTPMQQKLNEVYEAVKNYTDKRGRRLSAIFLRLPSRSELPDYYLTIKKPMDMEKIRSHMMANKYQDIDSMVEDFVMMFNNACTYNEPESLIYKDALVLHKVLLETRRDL
Procedure: as §1, §2, §3

PCAF = biological target: T23, PCAF (Homo sapiens, UniProt Q92831); assay: BromoKdMAX (BROMOscan, DiscoverX); format: binding; settings: PCAF (KAT2B)
T23 construct: T7 phage strains displaying bromodomains were grown in parallel; purchased DiscoverX; host or cells: T7 phage grown in E. coli host derived from BL21
T23 sequence (Q92831 723-827 limits assumed): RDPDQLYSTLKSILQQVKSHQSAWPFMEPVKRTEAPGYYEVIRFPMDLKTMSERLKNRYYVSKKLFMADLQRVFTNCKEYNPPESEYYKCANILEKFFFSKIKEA
Procedure: as §1, §2, §3

SMARCA2 = biological target: T24, SMARCA2 (Homo sapiens, UniProt P51531); assay: BromoKdMAX (BROMOscan, DiscoverX); format: binding
T24 construct: T7 phage strains displaying bromodomains were grown in parallel; purchased DiscoverX; host or cells: T7 phage grown in E. coli host derived from BL21
T24 sequence (P51531 1378-1506 limits assumed): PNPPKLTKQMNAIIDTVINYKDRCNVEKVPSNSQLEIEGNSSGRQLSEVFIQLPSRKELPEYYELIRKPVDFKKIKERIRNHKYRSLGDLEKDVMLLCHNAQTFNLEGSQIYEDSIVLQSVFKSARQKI
Procedure: as §1, §2, §3

SMARCA4 = biological target: T25, SMARCA4 (Homo sapiens, UniProt P51532); assay: BromoKdMAX (BROMOscan, DiscoverX); format: binding
T25 construct: T7 phage strains displaying bromodomains were grown in parallel; purchased DiscoverX; host or cells: T7 phage grown in E. coli host derived from BL21
T25 sequence (P51532 1453-1564 limits assumed): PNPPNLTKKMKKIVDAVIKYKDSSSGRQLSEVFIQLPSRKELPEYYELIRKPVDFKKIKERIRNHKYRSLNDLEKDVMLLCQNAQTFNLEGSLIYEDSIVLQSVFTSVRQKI
Procedure: as §1, §2, §3

TAF1(2) = biological target: T26, TAF1(2) (Homo sapiens, UniProt P21675); assay: BromoKdMAX (BROMOscan, DiscoverX); format: binding
T26 construct: T7 phage strains displaying bromodomains were grown in parallel; purchased DiscoverX; host or cells: T7 phage grown in E. coli host derived from BL21
T26 sequence (P21675 1519-1628 limits assumed): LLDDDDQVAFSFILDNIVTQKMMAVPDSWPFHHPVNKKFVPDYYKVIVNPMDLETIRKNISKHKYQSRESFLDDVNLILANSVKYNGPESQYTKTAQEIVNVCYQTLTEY
Procedure: as §1, §2, §3

TAF1L(2) = biological target: T27, TAF1L(2) (Homo sapiens, UniProt Q8IZX4); assay: BromoKdMAX (BROMOscan, DiscoverX); format: binding
T27 construct: T7 phage strains displaying bromodomains were grown in parallel; purchased DiscoverX; host or cells: T7 phage grown in E. coli host derived from BL21
T27 sequence (Q8IZX4 1517-1626 limits assumed): as the sequence (P21675 1519-1628 limits assumed) above, with V46M, M51V, V102I, L107I counted along it
Procedure: as §1, §2, §3

TRIM24(Bromo.) = biological target: T28, TRIM24(Bromo.) (Homo sapiens, UniProt O15164); assay: BromoKdMAX (BROMOscan, DiscoverX); format: binding
T28 construct: T7 phage strains displaying bromodomains were grown in parallel; purchased DiscoverX; host or cells: T7 phage grown in E. coli host derived from BL21
T28 sequence (O15164 899-1004 limits assumed): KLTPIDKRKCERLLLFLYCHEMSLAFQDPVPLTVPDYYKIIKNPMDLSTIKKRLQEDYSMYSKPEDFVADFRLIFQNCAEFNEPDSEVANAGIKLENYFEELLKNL
Procedure: as §1, §2, §3

TRIM24(PHD, Bromo.) = biological target: T29, TRIM24(PHD, Bromo.) (Homo sapiens, UniProt O15164); assay: BromoKdMAX (BROMOscan, DiscoverX); format: binding
T29 construct: TRIM24(PHD, Bromo.); purchased DiscoverX; host or cells: T7 phage grown in E. coli host derived from BL21
T29 sequence (O15164 824-1006 limits assumed): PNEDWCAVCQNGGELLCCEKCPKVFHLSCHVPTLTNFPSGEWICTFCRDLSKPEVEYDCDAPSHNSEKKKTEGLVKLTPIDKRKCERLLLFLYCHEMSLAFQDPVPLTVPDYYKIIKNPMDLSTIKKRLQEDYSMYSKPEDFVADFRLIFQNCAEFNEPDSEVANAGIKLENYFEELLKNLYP
Procedure: as §1, §2, §3

WDR9(2) = biological target: T30, WDR9(2) (Homo sapiens, UniProt Q9NSI6); assay: BromoKdMAX (BROMOscan, DiscoverX); format: binding; settings: WDR9(2) (BRWD1)
T30 construct: T7 phage strains displaying bromodomains were grown in parallel; purchased DiscoverX; host or cells: T7 phage grown in E. coli host derived from BL21
T30 sequence (Q9NSI6 1313-1418 limits assumed): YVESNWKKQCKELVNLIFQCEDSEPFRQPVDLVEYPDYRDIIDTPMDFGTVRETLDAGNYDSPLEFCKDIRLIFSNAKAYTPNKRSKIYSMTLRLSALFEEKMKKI
Procedure: as §1, §2, §3

pKd (ATAD2A): < 5.00
pKd (ATAD2B): < 5.00
pKd (BAZ2A): < 5.00
pKd (BAZ2B): < 5.00
pKd (BRD1): < 5.00
pKd (BRD3(1)): < 5.00
pKd (BRD3(1, 2)): < 5.00
pKd (BRD3(2)): < 5.00
pKd (BRD7): < 5.00
pKd (BRD8(1)): < 5.00
pKd (BRD8(2)): < 5.00
pKd (BRD9): < 5.00
pKd (BRDT(1)): < 5.00
pKd (BRDT(1, 2)): < 5.00
pKd (BRDT(2)): < 5.00
pKd (BRPF1): < 5.00
pKd (BRPF3): < 5.00
pKd (CECR2): < 5.00
pKd (FALZ): < 5.00
pKd (GCN5L2): < 5.00
pKd (PBRM1(2)): < 5.00
pKd (PBRM1(5)): < 5.00
pKd (PCAF): < 5.00
pKd (SMARCA2): < 5.00
pKd (SMARCA4): < 5.00
pKd (TAF1(2)): < 5.00
pKd (TAF1L(2)): < 5.00
pKd (TRIM24(Bromo.)): < 5.00
pKd (TRIM24(PHD, Bromo.)): < 5.00
pKd (WDR9(2)): < 5.00
SMILES: COc1cncc(-c2cc(Nc3cccc(F)c3)nc([C@@H]3CC[C@H](C)N(C(C)=O)C3)n2)c1 [Compound 00004]
pEC50 (OPM-2): > 6.70
